Literature values, collected in patent publication US7932258B2, “Use of a partially neutralized, anionic (meth) acrylate copolymer as a coating for the production of a medicament pharmaceutical form releasing active substance at reduced pH values” (Evonik Roehm GmbH, priority 2005, dated 2011).

Settings: pH 4.0

Solubility and stability of the active substance: adequately soluble and stable
Compound: CC(=O)Oc1ccccc1C(=O)O [Acetylsalicylic acid]
